The source of these data is patent US20160244437A1, “SUBSTITUTED PHENYLALANINE DERIVATIVES” (BAYER PHARMA AKTIENGESELLSCHAFT, priority 2013, published 2016).

The structures appear in SMILES notation. Structures can show the parent of a compound that is named as a salt.

In one experiment the test system is human and animal plasma. As to the kind of experiment: Determination of anticoagulatory activity: activated partial thromboplastin time (aPTT) in plasma. The settings on record: concentration of test substance which brings about a 1.5-fold extension of the aPTT; plasma in vitro, C.K. Prest kit. The procedure:
The anticoagulatory activity of the test substances is determined in vitro in human and animal plasma (for example mouse, rat, rabbit, pig and dog plasma). To this end, blood is drawn off in a mixing ratio of sodium citrate/blood of 1:9 using a 0.11 molar sodium citrate solution as receiver. Immediately after the blood has been drawn off, it is mixed thoroughly and centrifuged at about 4000 g for 15 minutes. The supernatant is pipetted off.
The activated partial thromboplastin time (aPTT) is determined in the presence of varying concentrations of test substance or the corresponding solvent using a commercial test kit (C.K. Prest from Diagnostica Stago). The test compounds are incubated with the plasma and the PTT reagent (cephalin, kaolin) at 37° C. for 3 minutes. Coagulation is then started by addition of a 25 mM aqueous calcium chloride solution, and the time when coagulation occurs is determined. The concentration of test substance which brings about a 1.5-fold extension of the aPTT is determined.

Another experiment concerns the target T1, human factor XIa (Homo sapiens, UniProt P03951).
T1 construct: purchased Kordia
As to the kind of experiment: Measurement of FXIa inhibition (fluorogenic peptide substrate Boc-Glu(OBzl)-Ala-Arg-AMC). In kind it is biochemical. The settings on record: factor XIa from Kordia 0.45 nM, 15 min pre-incubation, 30 min at 22° C., fluorescence.

T1 sequence (P03951 388-625 limits assumed): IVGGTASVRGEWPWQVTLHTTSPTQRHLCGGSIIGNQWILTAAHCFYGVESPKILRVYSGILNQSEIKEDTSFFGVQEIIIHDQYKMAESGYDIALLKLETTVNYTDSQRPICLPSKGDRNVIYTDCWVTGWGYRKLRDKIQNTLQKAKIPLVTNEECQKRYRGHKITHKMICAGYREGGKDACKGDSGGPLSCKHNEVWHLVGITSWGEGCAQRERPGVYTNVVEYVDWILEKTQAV
T1 sequence (P03951 19-387 partner limits assumed): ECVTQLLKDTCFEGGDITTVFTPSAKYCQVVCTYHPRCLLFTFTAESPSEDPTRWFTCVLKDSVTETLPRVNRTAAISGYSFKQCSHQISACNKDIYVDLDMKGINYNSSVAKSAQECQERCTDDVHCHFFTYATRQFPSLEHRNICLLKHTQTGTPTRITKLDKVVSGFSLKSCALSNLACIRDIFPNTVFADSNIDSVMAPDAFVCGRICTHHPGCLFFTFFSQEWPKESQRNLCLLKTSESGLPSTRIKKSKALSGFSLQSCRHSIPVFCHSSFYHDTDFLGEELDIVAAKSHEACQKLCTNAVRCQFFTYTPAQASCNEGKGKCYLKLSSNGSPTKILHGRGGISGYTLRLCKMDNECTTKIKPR

The compound `COc1ccc(C[C@H](NC(=O)[C@H]2CC[C@H](CN)CC2)C(=O)Nc2ccc(-c3nn[nH]n3)cc2)cc1-c1ccc(C(=O)N[C@@H]2CCNC2)cc1C` [Example 57, 5′-[(2S)-2-({[trans-4-(Aminomethyl)cyclohexyl]carbonyl}amino)-3-oxo-3-{[4-(2H-tetrazol-5-yl)phenyl]amino}propyl]-2′-methoxy-2-methyl-N-[(3R)-pyrrolidin-3-yl]biphenyl-4-carboxamide hydrochloride] displayed an aPTT with human and animal plasma of 0.3 µmol/L. Further, half-maximal inhibition on human factor XIa (IC50) required 17 nM.

Compound `CN(C)CCCOc1ccc(-c2cccc(C[C@H](NC(=O)[C@H]3CC[C@H](CN)CC3)C(=O)Nc3ccc(-c4nc(C(F)(F)C(F)(F)C(=O)O)n[nH]4)cc3)c2)cn1` [Example 109, hydrochloride] came in with an aPTT in the experiment with human and animal plasma of 0.16 µmol/L. Further, the IC50 (commonly the point on the concentration scale where inhibition reaches its midpoint) at human factor XIa amounted to 6 nM.

`CN(C)CCNC(=O)c1cccc(-c2cccc(C[C@H](NC(=O)[C@H]3CC[C@H](CN)CC3)C(=O)Nc3ccc(-c4nnn[nH]4)cc3)c2)c1` [Example 39, 3′-[(2S)-2-({[trans-4-(Aminomethyl)cyclohexyl]carbonyl}amino)-3-oxo-3-{[4-(1H-tetrazol-5-yl)phenyl]amino}propyl]-N-[2-(dimethylamino)ethyl]biphenyl-3-carboxamide hydrochloride] gave an aPTT with human and animal plasma of 0.22 µmol/L. This compound registered an IC50 on human factor XIa of 8.9 nM.

Consider `CN1CCN(c2ncc(-c3cccc(C[C@H](NC(=O)[C@H]4CC[C@H](CN)CC4)C(=O)Nc4ccc(-c5nnc(Cl)[nH]5)cc4)c3)cn2)CC1` [Example 91, N-alpha-{[trans-4-(Aminomethyl)cyclohexyl]carbonyl}-N-[4-(3-chloro-4H-1,2,4-triazol-5-yl)phenyl]-3-[2-(4-methylpiperazin-1-yl)pyrimidin-5-yl]-L-phenylalaninamide hydrochloride], for which, in the experiment on human and animal plasma, the aPTT was determined as 0.06 µmol/L. At human factor XIa, this compound yielded an IC50 of 3.5 nM.

Compound `CN(C)CCCOc1ccc(-c2cccc(C[C@H](NC(=O)[C@H]3CC[C@H](CN)CC3)C(=O)Nc3ccc(-c4nnc(Cl)[nH]4)cc3)c2)cn1` [Example 90, N-alpha-{[trans-4-(Aminomethyl)cyclohexyl]carbonyl}-N-[4-(3-chloro-4H-1,2,4-triazol-5-yl)phenyl]-3-{6-[3-(dimethylamino)propoxy]pyridin-3-yl}-L-phenylalaninamide hydrochloride] showed an aPTT with human and animal plasma of 0.08 µmol/L. At human factor XIa, this compound yielded an IC50 of 5.8 nM.

In the experiment on human and animal plasma, `NC[C@H]1CC[C@H](C(=O)N[C@@H](Cc2cccc(-c3ccc(C(=O)N4CCN(CCO)CC4)cc3)c2)C(=O)Nc2ccc(-c3nnn[nH]3)cc2)CC1` [Example 48, trans-4-(Aminomethyl)-N-[(2S)-3-(4′-{[4-(2-hydroxyethyl)piperazin-1-yl]carbonyl}biphenyl-3-yl)-1-oxo-1-{[4-(1H-tetrazol-5-yl)phenyl]amino}propan-2-yl]cyclohexanecarboxamide hydrochloride] registered an aPTT of 0.44 µmol/L. In addition, the IC50 against human factor XIa amounted to 6.9 nM.

`CC(C)N1CCC(NC(=O)c2cccc(-c3cccc(C[C@H](NC(=O)[C@H]4CC[C@H](CN)CC4)C(=O)Nc4ccc(-c5nnn[nH]5)cc4)c3)c2)CC1` [Example 32, 3′-[(2S)-2-({[trans-4-(Aminomethyl)cyclohexyl]carbonyl}amino)-3-oxo-3-{[4-(1H-tetrazol-5-yl)phenyl]amino}propyl]-N-[1-(propan-2-yl)piperidin-4-yl]biphenyl-3-carboxamide hydrochloride] came in with an aPTT with human and animal plasma of 0.18 µmol/L. The compound also showed an IC50 against human factor XIa of 6.8 nM.

As to `Cc1nc(O)ccc1-c1cccc(C[C@H](NC(=O)[C@H]2CC[C@H](CN)CC2)C(=O)Nc2ccc(-c3nnn[nH]3)cc2)c1` [Example 98, N-alpha-{[trans-4-(Aminomethyl)cyclohexyl]carbonyl)}-3-(6-hydroxy-2-methylpyridin-3-yl)-N-[4-(1H-tetrazol-5-yl)phenyl]-L-phenylalaninamide hydrochloride], the aPTT with human and animal plasma stood at 0.2 µmol/L. The compound also gave an IC50 against human factor XIa of 5.4 nM.

In the experiment on human and animal plasma, `Cc1cc(S(=O)(=O)NC2CCNCC2)ccc1-c1cccc(C[C@H](NC(=O)[C@H]2CC[C@H](CN)CC2)C(=O)Nc2ccc(-c3nnc(Cl)[nH]3)cc2)c1` [Example 55, trans-4-(Aminomethyl)-N-{(2S)-1-{[4-(3-chloro-4H-1,2,4-triazol-5-yl)phenyl]amino}-3-[2′-methyl-4′-(piperidin-4-ylsulphamoyl)biphenyl-3-yl]-1-oxopropan-2-yl}cyclohexanecarboxamide hydrochloride] showed an aPTT of 0.14 µmol/L. Also, the IC50 against human factor XIa was found to be 4.3 nM.

The compound `CN(C)CCCOc1ccc(-c2cccc(C[C@H](NC(=O)[C@H]3CC[C@H](CN)CC3)C(=O)Nc3ccc(-c4nnn[nH]4)cc3)c2)cn1` [Example 59, N-alpha-{[trans-4-(Aminomethyl)cyclohexyl]carbonyl}-3-{6-[3-(dimethylamino)propoxy]pyridin-3-yl}-N-[4-(1H-tetrazol-5-yl)phenyl]-L-phenylalaninamide hydrochloride] showed an aPTT in the experiment on human and animal plasma of 0.19 µmol/L. In addition, on human factor XIa, the IC50 was determined as 7.2 nM.

In the experiment with human and animal plasma, `NC[C@H]1CC[C@H](C(=O)N[C@@H](Cc2cccc(-c3cccc(S(N)(=O)=O)c3)c2)C(=O)Nc2ccc(-c3nnn[nH]3)cc2)CC1` [Example 5, trans-4-(Aminomethyl)-N-[(2S)-1-oxo-3-(3′-sulphamoylbiphenyl-3-yl)-1-{[4-(1H-tetrazol-5-yl)phenyl]amino}propan-2-yl]cyclohexanecarboxamide hydrochloride] came in with an aPTT of 0.23 µmol/L. Also, half-maximal inhibition against human factor XIa (IC50) was put at 3.4 nM.

`CN(C)CCCOc1ccc(-c2cccc(C[C@H](NC(=O)[C@H]3CC[C@H](CN)CC3)C(=O)Nc3ccc(-c4nnc(C(F)(F)F)[nH]4)cc3)c2)cn1` [Example 101, N-alpha-{[trans-4-(Aminomethyl)cyclohexyl]carbonyl}-3-{6-[3-(dimethylamino)propoxy]pyridin-3-yl}-N-{4-[3-(trifluoromethyl)-4H-1,2,4-triazol-5-yl]phenyl}-L-phenylalaninamide hydrochloride]: the aPTT in the experiment on human and animal plasma was 0.43 µmol/L. The compound further came in with an IC50 on human factor XIa of 14 nM.

In the experiment on human and animal plasma, `NC[C@H]1CC[C@H](C(=O)N[C@@H](Cc2cccc(-c3cnc(NC4CC4)nc3)c2)C(=O)Nc2ccc(-c3nnn[nH]3)cc2)CC1` [Example 82, N-alpha-{[trans-4-(Aminomethyl)cyclohexyl]carbonyl}-3-[2-(cyclopropylamino)pyrimidin-5-yl]-N-[4-(1H-tetrazol-5-yl)phenyl]-L-phenylalaninamide hydrochloride] returned an aPTT of 0.14 µmol/L. Also, it took 3.4 nM to reach half-maximal inhibition against human factor XIa (IC50).

In turn, `CC(=O)Nc1ncc(-c2cccc(C[C@H](NC(=O)[C@H]3CC[C@H](CN)CC3)C(=O)Nc3ccc(-c4nnn[nH]4)cc3)c2)c(C)n1` [Example 94, 3-[2-(Acetylamino)-4-methylpyrimidin-5-yl]-N-alpha-{[trans-4-(aminomethyl)cyclohexyl]-carbonyl}-N-[4-(1H-tetrazol-5-yl)phenyl]-L-phenylalaninamide hydrochloride] showed an aPTT with human and animal plasma of 0.23 µmol/L. The compound further gave an IC50 at human factor XIa of 5.4 nM.

Take `Cc1ccc(C[C@H](NC(=O)[C@H]2CC[C@H](CN)CC2)C(=O)Nc2ccc(-c3nnn[nH]3)cc2)cc1-c1ccc(C(=O)NC2CCNCC2)cc1` [Example 49, 5′-[(2S)-2-({[trans-4-(Aminomethyl)cyclohexyl]carbonyl}amino)-3-oxo-3-{[4-(1H-tetrazol-5-yl)phenyl]amino}propyl]-2′-methyl-N-(piperidin-4-yl)biphenyl-4-carboxamide hydrochloride]: the aPTT with human and animal plasma was 0.47 µmol/L. The same compound registered an IC50 against human factor XIa of 21 nM.

Turning to `CN(C)C(=O)c1cccc(-c2cccc(C[C@H](NC(=O)[C@H]3CC[C@H](CN)CC3)C(=O)Nc3ccc(-c4nnn[nH]4)cc3)c2)c1` [Example 43, 3′-[(2S)-2-({[trans-4-(Aminomethyl)cyclohexyl]carbonyl}amino)-3-oxo-3-{[4-(1H-tetrazol-5-yl)phenyl]amino}propyl]-N,N-dimethylbiphenyl-3-carboxamide hydrochloride], in the experiment on human and animal plasma, the aPTT amounted to 0.26 µmol/L. This compound also gave an IC50 on human factor XIa of 5.2 nM.

`Cc1ccc(S(=O)(=O)N2CCOCC2)cc1-c1cccc(C[C@H](NC(=O)[C@H]2CC[C@H](CN)CC2)C(=O)Nc2ccc(-c3noc(=O)[nH]3)cc2)c1` [Example 52, trans-4-(Aminomethyl)-N-[(2S)-3-[2′-methyl-5′-(morpholin-4-ylsulphonyl)biphenyl-3-yl]-1-oxo-1-{[4-(5-oxo-4,5-dihydro-1,2,4-oxadiazol-3-yl)phenyl]amino}propan-2-yl]cyclohexanecarboxamide hydrochloride]: in the experiment on human and animal plasma, the aPTT came to 0.06 µmol/L. At human factor XIa, this compound displayed an IC50 of 1.8 nM.

In the experiment with human and animal plasma, `COCCOCCOCCNC(=O)c1cccc(-c2cc(C[C@H](NC(=O)[C@H]3CC[C@H](CN)CC3)C(=O)Nc3ccc(-c4nnn[nH]4)cc3)ccc2C)c1` [Example 18, 5′-[(2S)-2-({[trans-4-(Aminomethyl)cyclohexyl]carbonyl}amino)-3-oxo-3-{[4-(1H-tetrazol-5-yl)phenyl]amino}propyl]-N-{2-[2-(2-methoxyethoxy)ethoxy]ethyl}-2′-methylbiphenyl-3-carboxamide hydrochloride] displayed an aPTT of 0.4 µmol/L. The compound also returned an IC50 against human factor XIa of 5.7 nM.
